Experimental data taken from patent US20240109918A1, “HETEROCYCLIC COMPOUNDS AND USES THEREOF” (Kumquat Biosciences Inc., priority 2022, published 2024).
pIC50: −log10 of the molar value.

How the values were obtained:
KRASG12D = target: T1, KRASG12D (Homo sapiens, UniProt P01116, G12D); assay: Bio-Biochem-PPI-HTRF Ras-SOS1 interaction assay (KRAS G12D); type: biochemical; settings: 5 nM
T1 construct: made in house; host or cells: E. coli BL21 (DE3)
Method in brief: (§1)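 HTRF measurement of GST-K-Ras (wt or G12D) binding to His-hSOS1, via anti-GST-Eu(K) donor and anti-6His-XL665 acceptor, in HEPES pH 7.4 buffer with NaCl, DTT, BSA and Igepal. Read after ≥10 min; compounds in duplicate from 10 μM down to 0.01 μM. IC50 from 665/620 nm ratio.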

KRASwt = target: T2, KRASwt (Homo sapiens, UniProt P01116); assay: Bio-Biochem-PPI-HTRF Ras-SOS1 interaction assay (KRAS wt); type: biochemical; settings: 5 nM
T2 construct: made in house; host or cells: E. coli BL21 (DE3)
T2 sequence (P01116 1-188 isoform P01116-2): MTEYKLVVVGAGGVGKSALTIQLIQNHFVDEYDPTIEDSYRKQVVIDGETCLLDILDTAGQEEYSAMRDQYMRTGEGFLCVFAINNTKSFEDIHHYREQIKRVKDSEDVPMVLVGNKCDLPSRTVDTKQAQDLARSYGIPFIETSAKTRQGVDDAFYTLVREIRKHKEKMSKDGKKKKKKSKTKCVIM
Method in brief: as §1

T1 sequence (P01116 1-188 isoform P01116-2 G12D): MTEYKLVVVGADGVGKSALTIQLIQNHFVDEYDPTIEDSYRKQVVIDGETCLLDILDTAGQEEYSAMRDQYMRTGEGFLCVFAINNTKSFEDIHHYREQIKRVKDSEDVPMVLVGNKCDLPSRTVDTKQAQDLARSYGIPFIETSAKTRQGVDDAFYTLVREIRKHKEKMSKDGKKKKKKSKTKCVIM

| pIC50 (KRASG12D) | pIC50 (KRASwt) | SMILES |
| --- | --- | --- |
| > 5.30 | > 5.30 | N#Cc1c(N)sc2c(F)ccc(-c3c(Cl)cc4c(N5CCCCC6(CN(C(=O)CN7CCOCC7)C6)C5)nc(OC[C@@]56CCCN5C[C@H](F)C6)nc4c3F)c12 [compound 335, 2-amino-4-(6-chloro-8-fluoro-2-(((2R,7aS)-2-fluorotetrahydro-1H-pyrrolizin-7a(5H)-yl)methoxy)-4-(2-(2-morpholinoacetyl)-2,6-diazaspiro[3.6]decan-6-yl)quinazolin-7-yl)-7-fluorobenzo[b]thiophene-3-carbonitrile] |
| > 5.30 | > 5.30 | COc1nc(N2CCCCC3(CN(C(C)=O)C3)C2)c2cc(Cl)c(-c3ccc(F)c4sc(N)c(C#N)c34)c(F)c2n1 [compound 256, 4-(4-(2-acetyl-2,6-diazaspiro[3.6]decan-6-yl)-6-chloro-8-fluoro-2-methoxyquinazolin-7-yl)-2-amino-7-fluorobenzo[b]thiophene-3-carbonitrile] |
| > 5.30 | > 5.30 | N#Cc1c(N)sc2c(F)ccc(-c3c(F)c4nc(OC[C@@]56CCCN5C[C@H](F)C6)nc(N5CCCCC6(CN(C(=O)C7CC7(F)F)C6)C5)c4c(=O)n3C3CC3)c12 (stereo partly drawn) [compound 246, 2-amino-4-(6-cyclopropyl-4-(2-(2,2-difluorocyclopropane-1-carbonyl)-2,6-diazaspiro[3.6]decan-6-yl)-8-fluoro-2-(((2R,7aS)-2-fluorotetrahydro-1H-pyrrolizin-7a(5H)-yl)methoxy)-5-oxo-5,6-dihydropyrido[4,3-d]pyrimidin-7-yl)-7-fluorobenzo[b]thiophene-3-carbonitrile] |
| > 5.30 | > 5.30 | N#Cc1c(N)sc2c(F)ccc(-c3c(Cl)cc4c(N5CCCCC6(CN(C(=O)C7CC8(C7)CC8(F)F)C6)C5)nc(OC[C@@]56CCCN5C[C@H](F)C6)nc4c3F)c12 (stereo partly drawn) [compound 309, 2-amino-4-(6-chloro-4-(2-(1,1-difluorospiro[2.3]hexane-5-carbonyl)-2,6-diazaspiro[3.6]decan-6-yl)-8-fluoro-2-(((2R,7aS)-2-fluorotetrahydro-1H-pyrrolizin-7a(5H)-yl)methoxy)quinazolin-7-yl)-7-fluorobenzo[b]thiophene-3-carbonitrile] |
| > 5.30 | > 5.30 | N#Cc1c(N)sc2c(F)ccc(-c3c(Cl)cc4c(N5CCCCC6(CN(C(=O)C7CC8CCC7O8)C6)C5)nc(OC[C@@]56CCCN5C[C@H](F)C6)nc4c3F)c12 (stereo partly drawn) [compound 303, 4-(4-(2-(7-oxabicyclo[2.2.1]heptane-2-carbonyl)-2,6-diazaspiro[3.6]decan-6-yl)-6-chloro-8-fluoro-2-(((2R,7aS)-2-fluorotetrahydro-1H-pyrrolizin-7a(5H)-yl)methoxy)quinazolin-7-yl)-2-amino-7-fluorobenzo[b]thiophene-3-carbonitrile] |
| > 5.30 | > 5.30 | N#Cc1c(N)sc2c(F)ccc(-c3c(Cl)cc4c(N5CCCCC6(CN(C(=O)N7CC[C@H]7C#N)C6)C5)nc(OC[C@@]56CCCN5C[C@H](F)C6)nc4c3F)c12 [compound 224, (2S)-1-(6-(7-(2-amino-3-cyano-7-fluorobenzo[b]thiophen-4-yl)-6-chloro-8-fluoro-2-(((2R,7aS)-2-fluorotetrahydro-1H-pyrrolizin-7a(5H)-yl)methoxy)quinazolin-4-yl)-2,6-diazaspiro[3.6]decane-2-carbonyl)azetidine-2-carbonitrile] |
| > 5.30 | > 5.30 | N#CCC1CCN(c2nc(OC[C@@]34CCCN3C[C@H](F)C4)nc3c(F)c(-c4ccc(F)c5sc(N)c(C#N)c45)c(Cl)cc23)CC2(C1)CN(C(=O)C1CC1(F)F)C2 (stereo partly drawn) [compound 324, 2-amino-4-(6-chloro-4-(9-(cyanomethyl)-2-(2,2-difluorocyclopropane-1-carbonyl)-2,6-diazaspiro[3.6]decan-6-yl)-8-fluoro-2-(((2R,7aS)-2-fluorotetrahydro-1H-pyrrolizin-7a(5H)-yl)methoxy)quinazolin-7-yl)-7-fluorobenzo[b]thiophene-3-carbonitrile] |
| > 5.30 | > 5.30 | N#Cc1c(N)sc2c(F)ccc(-c3c(Cl)cc4c(N5CCOC6(CN(C(=O)N7CC(C#N)C7)C6)C5)nc(OC[C@@]56CCCN5C[C@H](F)C6)nc4c3F)c12 [compound 257, 1-(8-(7-(2-amino-3-cyano-7-fluorobenzo[b]thiophen-4-yl)-6-chloro-8-fluoro-2-(((2R,7aS)-2-fluorotetrahydro-1H-pyrrolizin-7a(5H)-yl)methoxy)quinazolin-4-yl)-5-oxa-2,8-diazaspiro[3.5]nonane-2-carbonyl)azetidine-3-carbonitrile] |
| > 5.30 | > 5.30 | N#Cc1c(N)sc2c(F)ccc(-c3c(Cl)cc4c(N5CCC(O)CC6(CN(C(=O)[C@@H]7CC7(F)F)C6)C5)nc(OC[C@@]56CCCN5C[C@H](F)C6)nc4c3F)c12 (stereo partly drawn) [compound 249, 2-amino-4-(6-chloro-4-(2-((S)-2,2-difluorocyclopropane-1-carbonyl)-9-hydroxy-2,6-diazaspiro[3.6]decan-6-yl)-8-fluoro-2-(((2R,7aS)-2-fluorotetrahydro-1H-pyrrolizin-7a(5H)-yl)methoxy)quinazolin-7-yl)-7-fluorobenzo[b]thiophene-3-carbonitrile] |

Continued, compound first:

| SMILES | pIC50 (KRASG12D) | pIC50 (KRASwt) |
| --- | --- | --- |
| Nc1nc2c(-c3c(Cl)cc4c(N5CCCC6(CCNC6)C5)nc(OC[C@@]56CCCN5C[C@H](F)C6)nc4c3F)ccc(F)c2s1 (stereo partly drawn) [compound 130, 4-(6-chloro-8-fluoro-2-(((2R,7aS)-2-fluorotetrahydro-1H-pyrrolizin-7a(5H)-yl)methoxy)-4-(2,7-diazaspiro[4.5]decan-7-yl)quinazolin-7-yl)-7-fluorobenzo[d]thiazol-2-amine] | > 5.30 | > 5.30 |
| N#Cc1c(N)sc2c(F)ccc(-c3c(Cl)cc4c(N5CCCCC6(CN(C(=O)C7CCC7(F)F)C6)C5)nc(OC[C@@]56CCCN5C[C@H](F)C6)nc4c3F)c12 (stereo partly drawn) [compound 210, 2-amino-4-(6-chloro-4-(2-(2,2-difluorocyclobutane-1-carbonyl)-2,6-diazaspiro[3.6]decan-6-yl)-8-fluoro-2-(((2R,7aS)-2-fluorotetrahydro-1H-pyrrolizin-7a(5H)-yl)methoxy)quinazolin-7-yl)-7-fluorobenzo[b]thiophene-3-carbonitrile] | > 5.30 | > 5.30 |
| C[C@H](Oc1nc(N2CCOC3(CNC3)C2)c2cc(Cl)c(-c3ccc(F)c4sc(N)c(C#N)c34)c(F)c2n1)[C@@H]1CCCN1C [compound 110, 2-amino-4-(6-chloro-8-fluoro-2-((S)-1-((S)-1-methylpyrrolidin-2-yl)ethoxy)-4-(5-oxa-2,8-diazaspiro[3.5]nonan-8-yl)quinazolin-7-yl)-7-fluorobenzo[b]thiophene-3-carbonitrile] | > 5.30 | > 5.30 |
| N#Cc1c(N)sc2c(F)ccc(-c3c(Cl)cc4c(N5CCOC6(CN(C#N)C6)C5)nc(OC[C@@]56CCCN5C[C@H](F)C6)nc4c3F)c12 [compound 190, 8-(7-(2-amino-3-cyano-7-fluorobenzo[b]thiophen-4-yl)-6-chloro-8-fluoro-2-(((2R,7aS)-2-fluorotetrahydro-1H-pyrrolizin-7a(5H)-yl)methoxy)quinazolin-4-yl)-5-oxa-2,8-diazaspiro[3.5]nonane-2-carbonitrile] | > 5.30 | > 5.30 |
| CN(C)C/C=C/C(=O)N1CC2(CCCN(c3nc(OC[C@@]45CCCN4C[C@H](F)C5)nc4c(F)c(-c5ccc(F)c6sc(N)nc56)c(Cl)cc34)C2)C1 [compound 181, (E)-1-(6-(7-(2-amino-7-fluorobenzo[d]thiazol-4-yl)-6-chloro-8-fluoro-2-(((2R,7aS)-2-fluorotetrahydro-1H-pyrrolizin-7a(5H)-yl)methoxy)quinazolin-4-yl)-2,6-diazaspiro[3.5]nonan-2-yl)-4-(dimethylamino)but-2-en-1-one] | > 5.30 | > 5.30 |
| COCC(=O)N1CC2(CCCN(c3nc(O[C@@H](C)[C@@H]4CCCN4C)nc4c(F)c(-c5ccc(F)c6sc(N)c(C#N)c56)c(Cl)cc34)C2)C1 [compound 138, 2-amino-4-(6-chloro-8-fluoro-4-(2-(2-methoxyacetyl)-2,6-diazaspiro[3.5]nonan-6-yl)-2-((S)-1-((S)-1-methylpyrrolidin-2-yl)ethoxy)quinazolin-7-yl)-7-fluorobenzo[b]thiophene-3-carbonitrile] | > 5.30 | > 5.30 |
| N#Cc1c(N)sc2c(F)ccc(-c3c(Cl)cc4c(N5CCCCC6(CN(C(=O)C(C7CC7)N7CCOCC7)C6)C5)nc(OC[C@@]56CCCN5C[C@H](F)C6)nc4c3F)c12 (stereo partly drawn) [compound 223, 2-amino-4-(6-chloro-4-(2-(2-cyclopropyl-2-morpholinoacetyl)-2,6-diazaspiro[3.6]decan-6-yl)-8-fluoro-2-(((2R,7aS)-2-fluorotetrahydro-1H-pyrrolizin-7a(5H)-yl)methoxy)quinazolin-7-yl)-7-fluorobenzo[b]thiophene-3-carbonitrile] | > 5.30 | > 5.30 |
| CN(C)C/C=C/C(=O)N1CC2(CCCN(c3nc(OC[C@@]45CCCN4C[C@H](F)C5)nc4c(F)c(-c5ccc(F)c6sc(N)c(C#N)c56)c(Cl)cc34)C2)C1 [compound 189, 2-amino-4-(6-chloro-4-(2-((E)-4-(dimethylamino)but-2-enoyl)-2,6-diazaspiro[3.5]nonan-6-yl)-8-fluoro-2-(((2R,7aS)-2-fluorotetrahydro-1H-pyrrolizin-7a(5H)-yl)methoxy)quinazolin-7-yl)-7-fluorobenzo[b]thiophene-3-carbonitrile] | > 5.30 | > 5.30 |
